Source: ChEMBL document CHEMBL3745595, “Flavoalkaloids and Flavonoids from Astragalus monspessulanus” (J Nat Prod, 2015)

Columns and labels:
[1] = Antioxidant activity assessed as reactive oxygen species scavenging activity; type: physicochemical
Hepatocyte = experiment: Hepatoprotective activity against tert-butyl hydroperoxide-induced oxidative stress in Wistar rat hepatocytes assessed as cell viability at 60 ug/ml by tryphan blue exclusion method (reference value: 74%); type: functional; settings: for viability at 60 µg/mL: read-out: Activity

For SILYMARIN [listing 1 of 2 here], the Activity [1] was “Active”.

For `C[C@@H]1O[C@@H](OC[C@H]2O[C@@H](Oc3c(-c4ccc(O)cc4)oc4cc(O)cc(O)c4c3=O)[C@H](O[C@@H]3O[C@@H](C)[C@H](O)[C@@H](O)[C@H]3O)[C@@H](O)[C@H]2O)[C@H](O)[C@H](O)[C@H]1O`, the Activity [1] was “Active” and the viability at 60 µg/mL (Hepatocyte) was 168%.

In the case of `C[C@@H]1O[C@@H](O[C@H]2[C@H](Oc3c(-c4ccc(O)cc4)oc4cc(O)cc(O)c4c3=O)O[C@H](COC(=O)CC(C)(O)CC(=O)O)[C@H](O)[C@@H]2O)[C@H](O)[C@H](O)[C@H]1O` (stereo partly specified), the Activity [1] was “Active” and the viability at 60 µg/mL (Hepatocyte) was 155%.

For `C[C@@H]1O[C@@H](OC[C@H]2O[C@@H](Oc3c(-c4ccc(O)cc4)oc4cc(O[C@@H]5O[C@H](CO)[C@@H](O)[C@H](O)[C@H]5O)cc(O)c4c3=O)[C@H](O[C@@H]3O[C@@H](C)[C@H](O)[C@@H](O)[C@H]3O)[C@@H](O)[C@H]2O)[C@H](O)[C@H](O)[C@H]1O`, the Activity [1] was “Active” and the viability at 60 µg/mL (Hepatocyte) was 164%.

With `C[C@@H]1O[C@@H](OC[C@H]2O[C@@H](Oc3c(-c4ccc(O)cc4)oc4c(CN5CCCC(O)C5=O)c(O)cc(O)c4c3=O)[C@H](O[C@@H]3O[C@@H](C)[C@H](O)[C@@H](O)[C@H]3O)[C@@H](O)[C@H]2O)[C@H](O)[C@H](O)[C@H]1O` (stereo partly specified) the Activity [1] was “Active” and the viability at 60 µg/mL (Hepatocyte) was 177%.

In the case of `C[C@@H]1O[C@@H](OC[C@H]2O[C@@H](Oc3c(-c4ccc(O)c(O)c4)oc4cc(O[C@@H]5O[C@H](CO)[C@@H](O)[C@H](O)[C@H]5O)cc(O)c4c3=O)[C@H](O[C@@H]3O[C@@H](C)[C@H](O)[C@@H](O)[C@H]3O)[C@@H](O)[C@H]2O)[C@H](O)[C@H](O)[C@H]1O`, the Activity [1] was “Active” and the viability at 60 µg/mL (Hepatocyte) was 186%.

With `C[C@@H]1O[C@@H](OC[C@H]2O[C@@H](Oc3c(-c4ccc(O)c(O)c4)oc4cc(O)cc(O)c4c3=O)[C@H](O)[C@@H](O)[C@@H]2O)[C@H](O)[C@H](O)[C@H]1O` [RUTIN] the Activity [1] was “Active” and the viability at 60 µg/mL (Hepatocyte) was 168%.

For `O=c1cc(-c2ccc(O)cc2)oc2cc(O[C@@H]3O[C@H](CO)[C@@H](O)[C@H](O)[C@H]3O)cc(O)c12` [APIGETRIN], the Activity [1] was “Active” and the viability at 60 µg/mL (Hepatocyte) was 177%.

In the case of `C[C@@H]1O[C@@H](OC[C@H]2O[C@@H](Oc3c(-c4ccc(O)c(O)c4)oc4c(CN5CCCC(O)C5=O)c(O)cc(O)c4c3=O)[C@H](O[C@@H]3O[C@@H](C)[C@H](O)[C@@H](O)[C@H]3O)[C@@H](O)[C@H]2O)[C@H](O)[C@H](O)[C@H]1O` (stereo partly specified), the Activity [1] was “Active” and the viability at 60 µg/mL (Hepatocyte) was 159%.

SILYMARIN [listing 2 of 2 here] showed an Activity (Hepatocyte) of 182%.

In the case of `O=c1c(O[C@@H]2O[C@H](CO)[C@H](O)[C@H](O)[C@H]2O)c(-c2ccc(O)cc2)oc2cc(O)cc(O)c12` [TRIFOLIN], the Activity [1] was “Active” and the viability at 60 µg/mL (Hepatocyte) was 191%.

For `C[C@@H]1O[C@@H](O[C@H]2[C@H](Oc3c(-c4ccc(O)c(O)c4)oc4cc(O)cc(O)c4c3=O)O[C@H](COC(=O)CC(C)(O)CC(=O)O)[C@H](O)[C@@H]2O)[C@H](O)[C@H](O)[C@H]1O` (stereo partly specified), the Activity [1] was “Active” and the viability at 60 µg/mL (Hepatocyte) was 182%.

In the case of `C[C@@H]1O[C@@H](OC[C@H]2O[C@@H](Oc3c(-c4ccc(O)c(O)c4)oc4cc(O)cc(O)c4c3=O)[C@H](O[C@@H]3O[C@@H](C)[C@H](O)[C@@H](O)[C@H]3O)[C@@H](O)[C@H]2O)[C@H](O)[C@H](O)[C@H]1O`, the Activity [1] was “Active” and the viability at 60 µg/mL (Hepatocyte) was 195%.

With `C[C@@H]1O[C@@H](OC[C@H]2O[C@@H](Oc3c(-c4ccc(O)c(O)c4)oc4cc(O)cc(O)c4c3=O)[C@H](O)[C@@H](O)[C@H]2O)[C@H](O)[C@H](O)[C@H]1O` the Activity [1] was “Active” and the viability at 60 µg/mL (Hepatocyte) was 159%.
